In one data set the test system is 1205 Lu melanoma cells. The experiment in a line: Western blot analysis. It counts as cell-based, human. The note with it: 2.5-50 μmol/L for 48 h. An excerpt:
(§1) Cell lysates are harvested and processed as described in Sharma A et al., Cancer Res 2006, 66:8200-9. […] Protein lysates are collected for Western blotting. Blots are probed with total and phospho-Akt (Ser473), phospho-PRAS40 (Thr246), phospho-Erk1/2 (Thr202/Tyr204), total and Phospho-Mek1/2 (Ser217) and cleaved PARP from Cell Signaling Technology (Danvers, Mass.). Total PRAS40 from Invitrogen (Carlsbad, Calif.). Total Erk, cyclin D1, p27, Alpha-enolase and secondary antibodies conjugated with horseradish peroxidase from Santa Cruz Biotechnology (Santa Cruz Biotechnology, Santa Cruz, Calif.). COX-1 and COX-2 antibodies were obtained from Cayman Chemical Company, Ann Arbor, Mich. Immunoblots are developed using the enhanced chemiluminescence detection system (Amersham Pharmacia Biotech, Piscataway, N.J.).
(In general: A western blot detects proteins with antibodies after separation by electrophoresis.)

A further data set has as its system UACC 903 melanoma cells. Description: Western blot analysis. It counts as cell-based, human. The note with it: UACC 903, 2.5-50 μmol/L for 48 h.
Excerpt: as §1

For data set [1] the following is noted: for Mortality at Day 7: 3 mice/group. The text has this:
Number of mice surviving and changes in body weight after 7 days of drug treatment is scored (Table I).

The subject of a further data set is HT-1080 (Fibro sarcoma). Description: IC50 for killing cancer cells. It counts as cell-based. As to conditions: Homo sapiens. An excerpt: (§2) Therapeutic universality of selenocoxib-1-GSH for killing cancer cells is examined by treating pancreatic (MiaPaca-2), breast (MDA-MB-231), prostate (PC-3) or sarcoma (HT-1080) and colon (Caco2) cell. lines with the drug and establishing the IC50 for each cell line, Table III. Selenocoxib-1-GSH kills the various cancer cell lines at 2-3-fold lower concentrations than normal fibroblast cells.

The subject of a further data set is MiaPaca-2 (Pancreas). The experiment in a line: IC50 for killing cancer cells. It counts as cell-based. As to conditions: Homo sapiens, MIA PaCa-2.
Excerpt: as §2

The test system of the next data set is MDA-MB-231 (Breast). Description: IC50 for killing cancer cells. As to conditions: Homo sapiens. It counts as cell-based.
Excerpt: as §2

In a further data set the test system is PC-3 (Prostate). Description: IC50 for killing cancer cells. The note with it: Homo sapiens. It counts as cell-based.
Excerpt: as §2

The test system of a further data set is Caco-2 (Colon). The experiment in a line: IC50 for killing cancer cells. As to conditions: Homo sapiens. It counts as cell-based.
Excerpt: as §2

For data set [2], the system named is WM35 radial growth phase melanoma cells. Description: Cell viability, MTS assay. It counts as cell-based. As to conditions: Homo sapiens. How it is done:
(§3) Cell viability, proliferation, apoptosis and cell cycle analysis: Viability and IC50 (μmol/L) of normal human melanocytes, fibroblast and melanoma cells following treatment with inhibitors are measured using the MTS assay (Promega, Madison, Wis.) described in Sharma A, et al., Clin Cancer Res 2009; 15:1674-85; and Madhunapantula S V, et al., Mol Cancer Ther 2008; 7:1297-308. […] IC50 values for each inhibitor in μmol/L for respective cell lines are measured from three independent experiments using GraphPad Prism version 4.01 (GraphPad Software, La Jolla, Calif.).
(§4) The number of viable cells is measured using MTS and percentage decrease in viability calculated. IC50 values for each inhibitor in μmol/L for respective cell lines are measured from three independent experiments using GraphPad Prism version 4.01 (GraphPad Software, La Jolla, Calif.).

Data set [3] has as its system WM115 vertical growth phase melanoma cells. Description: Cell viability, MTS assay. It counts as cell-based. As to conditions: Homo sapiens, WM-115. How it is done: as §3, §4
A general note: Tetrazolium assays rely on reduction of a dye to a coloured formazan, in cell work by metabolically active cells.

Data set [4] deals with FF2441 human fibroblast cells. The experiment in a line: Cell viability, MTS assay. It counts as cell-based. How it is done: as §3, §4
Data set [5] has as its system FOM103 normal human melanocytes. Description: Cell viability, MTS assay. It counts as cell-based. The note with it: Melanocyte. How it is done: as §3, §4
In data set [6] the test system is UACC 903 metastatic melanoma cells. The experiment in a line: cells. As to conditions: Homo sapiens. How it is done: as §3, §4
The test system of data set [7] is 1205 Lu metastatic melanoma cells. Description: cells. The note with it: Homo sapiens. How it is done:
as §3, §4

Setting [8] is: 0.032 μmoles (2.5 PPM) intraperitoneally daily for seven days.

Where two headings read alike, the source gives them in different places.

The IC50 is the concentration that inhibits the measured activity by half. High values mean lower potency, low ones higher potency.

For the molecule `N#CC(=C(/N)Sc1ccccc1N)/C(C#N)=C(\N)Sc1ccccc1N` [U0126, reference compound], in the data set with 1205 Lu melanoma cells, the COX-1 expression result is on record as “without affecting COX-1”, the COX-2 expression result was “reduces the expression of COX-2” and the “Levels of pErk1/2” value is given as “similarly decrease”. In addition, in the data set with UACC 903 melanoma cells, the COX-1 expression entry is given as “without affecting COX-1”, the COX-2 expression entry is given as “reduces the expression of COX-2” and the “Levels of pErk1/2” value is given as “similarly decrease”.

For the molecule Selenocoxib-1, the “% of weight loss” value is listed as 14.07% in [1] (setting [8]) and 14% in [1] (0.032 μmoles (2.5 PPM) intraperitoneally daily for seven days, listed as selenocoxib-1). Further, the “Mortality at Day 7” value in data set [1] (setting [8]) is on record as 0/3; in [1] (0.064 μmoles (5.0 PPM) intraperitoneally daily for seven days), 3/3. In addition, the animal mortality in [1] (concentrations of 0.032-0.064, after seven days of treatment) was determined as 100%.

Consider `Cc1ccc(-c2cc(C(F)(F)F)nn2-c2ccc(S(N)(=O)=O)cc2)cc1` [Celecoxib, reference compound], for which the IC50 is above 100 µM with HT-1080 (Fibro sarcoma); above 100 µM with MiaPaca-2 (Pancreas); above 100 µM in the data set on MDA-MB-231 (Breast); above 100 µM in the data set on PC-3 (Prostate); above 100 µM in the data set with Caco-2 (Colon); 51.3 ± 2.3 µM in [2] (WM35, 24 h). In addition, the IC50 was 42.3 ± 1.8 µM in data set [2] (WM35, 48 h); 37.9 ± 3.3 µM in data set [2] (WM35, 72 h); 54.4 ± 3.6 µM in data set [3] (WM115, 24 h); 45.3 ± 2.7 µM in data set [3] (WM115, 48 h); 41.8 ± 2.9 µM in data set [3] (WM115, 72 h); above 100 µM in data set [4] (FF2441, 24 h). Besides, the IC50 was above 100 µM in data set [4] (FF2441, 48 h); 65.3 ± 3.3 µM in [4] (FF2441, 72 h); above 100 µM in [5] (FOM103, 24 h); above 100 µM in data set [5] (FOM103, 48 h); 68 ± 1.2 µM in data set [5] (FOM103, 72 h); above 100 µM in data set [6] (UACC-903, 24 h). In addition, the IC50 in data set [6] (UACC-903, 48 h) is above 100 µM; in [6] (UACC-903, 72 h), 76.6 ± 4.4 µM; in [7] (24 h), above 100 µM; in data set [7] (48 h), 83.6 ± 3.3 µM; in data set [7] (72 h), 66.1 ± 3.2 µM.

The values are drawn from patent US9918966B2, “Anti-cancer compositions and methods” (The Penn State Research Foundation, priority 2013, dated 2018).
